Data from US20230416245A1, “ADENOSINE ANALOGS FOR THE TREATMENT OF DISEASE” (BIOINTERVENE, INC., priority 2020, published 2023).

Key:
[1] = target: T1, human adenosine A3 receptor (Homo sapiens (Human), UniProt P0DMS8); assay: Adenosine receptor binding assay ([125I]-AB-MECA competition); conditions: inhibition of 0.15 nM [125I]-AB-MECA binding, membranes of cells expressing human A3 receptor; read-out: hA3 Ki: Ki
From the text: Example 30: Adenosine Receptor Binding Assay
Materials and Reference Compounds: [^125I]-AB-MECA and [^3H]CCPA are both obtained from Amersham Biosciences (Little Chalfont, UK). IB-MECA are obtained from Tocris (Bristol, UK) and N6-cyclopentyl adenosine (CPA) is obtained from Sigma-Alrich (Poole, UK). Cell culture media, G418 and hygromycin are obtained from Invitrogen (Paisley, UK). Fetal calf serum is obtained from Perbio Science (Cheshire, UK). All other reagents are obtained from Fisher Chemicals (Loughborough, UK).
The method followed is that of Yates L, Clark J H, Martin T J, James S, Broadley K J, Kidd E J. Radioligand binding and functional responses of ligands for human recombinant adenosine A3 receptors. Auton Autacoid Pharmacol. 2006; 26(2):191-200. Cells stably transfected with the human adenosine A3 or A1 receptor are grown in Dulbecco's modified Eagles medium with nutrient mixture F12 containing NaHCO3 and Glutamax. Media is supplemented with 10% fetal calf serum, geneticin (G418; 0.67 mg/mL), hygromycin (500 μg/mL) and adenosine deaminase (1 U/mL). Cells are maintained at 37° C. with 5% CO2 in air. Cells are harvested and homogenized in ice-cold Tris buffer [50 mM Tris, 150 mM NaCl, 1 mM ethylenediaminetetraacetic acid (EDTA), pH 7.4] supplemented with the peptidase inhibitors, 4-(2-aminoethyl)benzenesulfonylfluoride (1 mM) and bacitracin (0.1 mg/mL), using a Polytron homogenizer (3×10 s bursts). The homogenate was spun for 10 min (4° C.) at 500 g. The supernatant is retained and the pellet is re-suspended in the buffer, homogenized and spun as above. The combined supernatants are centrifuged for 15 min (4° C.) at 48,000 g. The resultant pellet is re-suspended in the buffer and centrifuged for a second time at 48,000 g. The membrane pellet is then suspended in Tris buffer containing no peptidase inhibitors or adenosine deaminase and stored at −80° C. at a protein concentration of 1 mg/mL.
Binding Assays: Radioligand-binding assays were performed using the adenosine A3 receptor agonist [^125I]-AB-MECA and the A1 receptor agonist [^3H]CCPA. Binding assays were conducted in a total volume of 100 μL containing a 50 mM Tris, pH 7.4 buffer with or without 10 mM MgCl2, 20 μg membranes and either 0.15 nM [^125I]-AB-MECA (for the A3 receptor) or 1 nM [^3H]CCPA (for the A1 receptor). Assays were conducted at room temperature for 60 min (A1 receptor) or 120 min (A3 receptor) and terminated by the addition of 2 ml of ice-cold wash buffer (50 mM Tris, pH 7.4 with or without 10 mM MgCl2) and rapid filtration over 0.03% polyethylenimine-treated Whatman GF/C filters using a Brandel cell harvester (Semat International Ltd., St Albans, UK). Filters were then washed three times with 2 ml of ice-cold buffer. The filter-bound radioactivity were counted using a Compugamma counter (LKB Wallac, Turku, Finland). Competition experiments were performed to investigate the ability of reference compounds and embodiments of the invention to inhibit [^125I]-AB-MECA binding. Non-specific binding were determined using the respective compound at its highest concentration.
Data Analysis: The Kd and Bmax values for binding data were calculated based upon the molar amounts of bound and free [^125I]-AB-MECA. […] IC50 and Ki values and Hill slopes for inhibition of the radioligand binding by the compounds of the invention were calculated from the ligand competition curves using the Excel spreadsheet and the Kd value calculated for either [^125I]-AB-MECA or [^3H]CCPA. The results were expressed as a percent of control specific binding and as a percent inhibition of control specific binding obtained in the presence of the compounds of the invention. The IC50 values (concentration causing a half-maximal inhibition of control specific binding) and Hill coefficients (nH) were determined by non-linear regression analysis of the competition curves generated with mean replicate values using Hill equation curve fitting: […]

[2] = target: T1, human adenosine A3 receptor; assay: Intracellular cAMP levels (inhibition of forskolin-stimulated cAMP production); type: cell-based
From the text: Example 31: Intracellular cAMP Levels
The method followed is that published in Yates L, Clark J H, Martin T J, James S, Broadley K J, Kidd E J. Radioligand binding and functional responses of ligands for human recombinant adenosine A3 receptors. Auton Autacoid Pharmacol. 2006 April; 26(2):191-200.
Materials and Cell Culture: Adenosine deaminase was obtained from Roche (Lewes, UK). Forskolin was obtained from Sigma-Aldrich (Poole, UK). The sources of other materials are provided above in Example 1. CHO-K1 cells stably transfected with the human adenosine A3 receptor were grown in Dulbecco's modified Eagles medium with nutrient mixture F12 containing NaHCO3 and Glutamax. Media was supplemented with 10% fetal calf serum, geneticin (G418; 0.67 mg/mL), hygromycin (500 μg/mL) and adenosine deaminase (1 U/mL). Cells were maintained at 37° C. with 5% CO2 in air.
cAMP Measurements: Intracellular cAMP production was measured directly using a non-acetylation cAMP enzyme immunoassay (Amersham Biosciences, Little Chalfont, UK). Cultured CHO cells expressing human adenosine A3 receptors were allowed to plate overnight in 96-well plates in culture medium containing adenosine deaminase. Twenty-four hours later, they were incubated with adenosine analogues or compounds of the invention (0.1 nM-1 μM) for 5 min at 37° C., followed by incubation with forskolin (10 μM) for 10 min. The cells were then lysed with 200 μL of lysis reagent 1 provided with the kit for 10 min to release intracellular cAMP. Aliquots of the supernatants were then transferred to a 96-well microtitre plate coated with donkey anti-rabbit IgG; 100-μL cAMP standards (12.5-3200 fmol/well) were also added to the microtitre plate; 100 μL of rabbit anti-cAMP antibody was added to all wells and incubated at 2-5° C. for 2 h. The antiserum was made up in lysis reagent 2, which sequesters the key component in lysis reagent 1 and ensures that cAMP is free for subsequent analysis. Then 50 μL of cAMP peroxidase conjugate was added to all wells and left to incubate for 60 min at 2-5° C. to allow competition for the antibody between the un-labelled and horse radish peroxidase (HRP)-labelled cAMP. Wells were then washed with buffer and 150 μL of enzyme substrate containing 3,3′,5,5′-tetramethylbenzidine/hydrogen peroxide in 20% (v/v) dimethylformamide was added to each well and left to incubate for 60 min on a Titramax 100 microtitre plate shaker (Heidolph Instruments, Schwabach, Germany) at room temperature for color development. The reaction was stopped by the addition of 100 μL of 1 M sulfuric acid and the optical density (OD) read at 450 nm on a spectrophotometric MRX microplate reader (Dynex Technologies, Chantilly, VA, USA).
Analyses: Each sample/standard was analyzed in duplicate and the resulting OD values averaged. The percent bound (B/Bo) for each standard and sample was calculated using the following relationship: […]
where B is the specific OD for standard/sample and Bo is the specific OD for the zero standard. A standard curve was generated by plotting % B/Bo as a function of the log fmol cAMP standard per well. The fmol per well value for cAMP in each sample was then read from the graph. The results are expressed as a percent of control agonist response: (measured response/control response)*100 in the presence of the compounds of the invention. Concentration-response curves for inhibition of cAMP production were constructed for all compounds of the invention and reference compounds. The EC50 values (concentration producing a half-maximal response) were determined by non-linear regression analysis of the concentration-response curves generated with mean replicate values using Hill equation curve fitting, according to the equation:
where Y=response, A=left asymptote of the curve, D=right asymptote of the curve, C=compound concentration, and C50=EC50, and nH=slope factor. […]

ADORA3 = ADORA3 (Homo sapiens (Human), UniProt P0DMS8); assay: Intracellular calcium release assay (FLIPR); type: cell-based
Chain of ADORA3 (P0DMS8 whole entry): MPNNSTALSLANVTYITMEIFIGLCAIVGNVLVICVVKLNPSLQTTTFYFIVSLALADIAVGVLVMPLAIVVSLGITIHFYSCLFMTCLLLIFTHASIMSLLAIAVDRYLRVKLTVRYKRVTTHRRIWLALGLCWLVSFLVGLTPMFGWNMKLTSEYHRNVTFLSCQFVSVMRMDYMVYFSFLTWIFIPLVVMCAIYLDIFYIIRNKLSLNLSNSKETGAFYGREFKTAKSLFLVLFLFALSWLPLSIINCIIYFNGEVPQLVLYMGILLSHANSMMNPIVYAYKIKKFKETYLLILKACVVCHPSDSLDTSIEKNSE
Procedure: Example 32: Intracellular Calcium Release Assay
Cell Culture: The table below lists the cell lines used that stably express the 4 subtypes of adenosine receptors, along with the growth medium used for each:
For experiments with the ADORA1- and ADORA3-expressing cells, the medium was aspirated and the cells washed twice with 10 mL DPBS. Two mL of trypsin was added and incubated at 37° C. for 1 minute. Then 10 mL of platting media was added to terminate the digestion and 1 mL of the solution was taken out for cell counting. ADORA2A- and ADORA2B-expressing cells were thawed rapidly in a 37° C. water bath. Cell suspensions were transferred to 50 mL conical tubes. Plating media was added to the 10 mL mark and then 1 mL taken out for cell counting. The 50 mL tubes containing the various types of cells were centrifuged at 1000 g. Then the supernatants were aspirated, being careful not to aspirate the cells. The cell pellets were resuspended in 3-5 mL platting media, then 0.5 mL was taken out for cell counting. Then the cell suspension was diluted to 1×10^6 cells/mL (20,000 cells per 20 μL per well) in platting medium, and cells were seeded into 384-well cell plates (Greiner-781946). The 384-well cell plate was placed in a 37° C./5% CO2 incubator (Thermo-371, Thermo Scientific) for 16-20 hours.
Preparation of the intracellular calcium imaging agent (Fluo-4 Direct™ Calcium Assay Kit, Invitrogen-F10471, Thermo Scientific): One mL of FLIPR Assay Buffer was added to 77 mg probenecid to make a 250 mM solution, which was used fresh for each day. One vial of Fluo-4 Direct™ crystals was thawed and 10 mL of FLIPR Assay Buffer was added to the vial. 0.2 mL of probenecid was added to each 10 mL vial of Fluo-Direct™ solution, such that the final assay concentration was 2.5 mM. It was vortexed, left to stand >5 min and protected from light. The dye was prepared fresh each day.
Compound Preparation: Compound plates were prepared as follows. First, the test compound was diluted to prepare a 2 mM solution and then 10-point 3-fold serial dilutions were made using ECHO (ECHO 555, LabCyte), then 900 nL was transferred to the compound plate. For all targets, the final top concentration of the test compound was […]. For agonist reference compounds, 10-point and 3-fold serial dilutions were made, then 900 nL was transferred to the assay plate. Then 30 μL of assay buffer was added to the compound plate and then the plate was centrifuged at 1000 rpm for 1 min.
FLIPR Assay: Cell plates were removed from the incubator, to which were added 20 μL 2×Fluo-4 Direct™ solution, then the plates were reincubated in a 5% CO2, 37° C. incubator for 50 min and at RT for 10 min. To run the protocol on the Fluorescent Imaging Plate Reader (FLIPR) TETRA (MD-FT0249, Molecular Devices, Inc.), 10 μL of assay buffer was transferred from the 384-well plate (Greiner-781280) to the cell plates and then the fluorescence signal was read. Then 10 μL of compound solution was transferred from the compound plate to the cell plates and the fluorescence signal was read. The “Max-Min” was calculated, starting from Read 91 to the maximum allowed. For agonists, activation %=(RLU−LC)/(HC−LC)*100, based on the following: RLU=relative light unit, 91 to maximum allowed signal; HC=average signal of the high concentration of agonist; LC=average signal of DMSO well. The data were fitted using GraphPad Prism 5, using the model “log(agonist) vs. response—Variable slope” to determine the EC50 value. The receptor efficacy of the test compound relative to the agonist NECA was calculated as a percentage (%) of the response to […]. Table 10 includes EC50 values for compounds described herein.

T1 sequence (P0DMS8 whole entry): as above

Compound: CCCNc1cc(Cl)nc2c1ncn2[C@H]1[C@H](O)[C@H](O)C2(C(=O)NC)C[C@H]12 (stereo in doubt) [Compound 64, (1S,2R,3S,4R,5S)-4-(5-chloro-7-(propylamino) 3H-imidazo[4,5-b]pyridin-3-yl)-2,3-dihydroxy-N-methylbicyclo[3.1.0]hexane-1-carboxamide]
- Ki [1]: 0.64 nM

Compound: Nc1c(OCc2cccc(Cl)c2)c(Cl)nc2c1ncn2[C@H]1[C@H](O)[C@H](O)[C@@H]2C[C@@H]21 [Compound 92, (1R,2R,3S,4R,5S)-4-(7-amino-5-chloro-6-((3-chlorobenzyl)oxy)-3H-imidazo[4,5-b]pyridin-3-yl)bicyclo[3.1.0]hexane-2,3-diol]
- Ki [1]: 26.8 nM

Compound: CCNC(=O)[C@@]12C[C@@H]1[C@@H](n1cnc3c(NCC)cc(Cl)nc31)[C@H](O)[C@@H]2O [Compound 69, (1S,2R,3S,4R,5S)-4-(5-chloro-7-(ethylamino)-3H-imidazo[4,5-b]pyridin-3-yl)-N-ethyl-2,3-dihydroxybicyclo[3.1.0]hexane-1-carboxamide]
- Ki [1]: 1.68 nM

Compound: CNC(=O)[C@@]12C[C@@H]1[C@@H](n1cnc3c(NCC(C)C)cc(Cl)nc31)[C@H](O)[C@@H]2O [Compound 83, (1S,2R,3S,4R,5S)-4-(5-chloro-7-(isobutylamino)-3H-imidazo[4,5-b]pyridin-3-yl)-2,3-dihydroxy-N-methylbicyclo[3.1.0]hexane-1-carboxamide]
- Ki [1]: 1.62 nM

Compound: CNC(=O)C12C[C@@H]1[C@@H](n1cnc3c(NCC4CCC4)cc(Cl)nc31)[C@H](O)[C@@H]2O (stereo in doubt) [Compound 65, (1S,2R,3S,4R,5S)-4-(5-chloro-7-((cyclobutylmethyl)amino)-3H-imidazo[4,5-b]pyridin-3-yl)-2,3-dihydroxy-N-methylbicyclo[3.1.0]hexane-1-carboxamide]
- Ki [1]: 3.49 nM

Compound: CCCNc1cc(Cl)nc2c1ncn2[C@H]1[C@H](O)[C@H](O)[C@@H]2C[C@@H]21 [Compound 66]
- Ki [1]: 126 nM

Compound: O[C@@H]1[C@H](O)[C@@H]2C[C@@H]2[C@H]1n1cnc2c(NCC(F)F)nc(C#CC3CC3)nc21 [Compound 38, (1R,2R,3S,4R,5S)-4-(2-(cyclopropylethynyl)-6-((2,2-difluoroethyl)amino)-9H-purin-9-yl)bicyclo[3.1.0]hexane-2,3-diol]
- EC50 ([2]; CHO cells expressing human adenosine A3 receptors, forskolin 10 μM): 1.8 nM
- CAMP Efficacy (%) ([2]; maximal response as percentage of the response produced by 100 nM IB-MECA): 65.1%
- EC50 (ADORA3; CHO-K1 cells, Fluo-4, top concentration 10 μM, read-out: Cell Calcium Assay EC50): 14.5 nM
- Cell Calcium Efficacy (%) (ADORA3; percentage of the response to NECA): 24.7%
